ChEMBL document CHEMBL6127126, “Closing the Design-Make-Test-Analyze Loop: Interplay between Experiments and Predictions Drives PROTACs Bioavailability” (J Med Chem, 2024)

Assays:
[1] = Lipophilicity, logD of compound in octanol-water at pH 7.4 by reverse phase HPLC analysis; assay type: physicochemical
[2] = Lipophilicity, logD of compound in octanol-water at pH 7.4 by shake-flask method; assay type: physicochemical
[3] = Oral bioavailability in C57 BL/6 or CD-1 mouse at 1 mg/kg measured upto 24 hrs by LC-MS/MS analysis; assay type: ADME, organism-based; settings: in vivo

logD ([1]; read-out: logD) | logD [1] | logD ([2]; read-out: logD) | bioavailability [3] | logD [2] | Structure (SMILES)
7.9 | – | – | – | – | CC1(C)CCC(CN2CCN(c3ccc(C(=O)NS(=O)(=O)c4ccc(NCC5CCOCC5)c([N+](=O)[O-])c4)c(Oc4cnc5[nH]ccc5c4)c3)CC2)=C(c2ccc(Cl)cc2)C1 [VENETOCLAX]
– | 5.7 | 4.6 | 58.5% | – | O=C1CC[C@H](N2Cc3cc(N4CCN(CC5CCN(c6ccc([C@@H]7c8ccc(O)cc8CC[C@@H]7c7ccccc7)cc6)CC5)CC4)ccc3C2=O)C(=O)N1 [VEPDEGESTRANT]
2.5 | – | 3.8 | 0% | – | Cc1nc(CCC(=O)NCCCCC(=O)N[C@H](C(=O)N2C[C@H](O)C[C@H]2C(=O)NCc2ccc(-c3scnc3C)cc2)C(C)(C)C)ccc1-c1cnc(NCc2c(Cl)ccc3c2CCO3)n2cnnc12
7.3 | – | 3.9 | 0.07% | – | Cc1ncsc1-c1ccc([C@H](C)NC(=O)[C@@H]2C[C@@H](O)CN2C(=O)[C@@H](NC(=O)CCCCCC(=O)N2CCN(CC[C@H](CSc3ccccc3)Nc3ccc(S(=O)(=O)NC(=O)c4ccc(N5CCN(CC6=C(c7ccc(Cl)cc7)CCC(C)(C)C6)CC5)cc4)cc3S(=O)(=O)C(F)(F)F)CC2)C(C)(C)C)cc1 [DT-2216]
– | 5.2 | – | – | – | CCOC(=O)C1=C(C)NC(C)=C(C(=O)OC)C1c1cccc(Cl)c1Cl (stereo not given) [FELODIPINE]
– | 2.4 | 3.5 | 23.7% | – | Cn1c(=O)n(C2CCC(=O)NC2=O)c2cccc(C#CCOC3CCN(C[C@H]4CC[C@H](n5cc(NC(=O)c6cnn7ccc(N8C[C@H]9C[C@@H]8CO9)nc67)c(C(F)F)n5)CC4)CC3)c21 (stereo not given in full) [KT-474]
4.2 | – | 3.1 | 2.7% | – | Cc1ncsc1-c1ccc(CNC(=O)[C@@H]2C[C@@H](O)CN2C(=O)[C@@H](NC(=O)C2(F)CC2)C(C)(C)C)c(OCCOc2ccc(CN3CCN(c4cc(-c5ccccc5O)nnc4N)CC3)cc2)c1
3.1 | – | – | – | – | CN(C)CCC=C1c2ccccc2C=Cc2ccccc21 [CYCLOBENZAPRINE]
5 | – | 3.7 | 57.6% | – | COc1cc(O[C@H]2C(C)(C)[C@H](NC(=O)c3ccc(N4CCC(CN5CCN(c6ccc(C(=O)N[C@H]7CCC(=O)NC7=O)c(F)c6)CC5)CC4)cc3)C2(C)C)ccc1C#N [LUXDEGALUTAMIDE]
6.2 | – | 4.6 | 61.4% | – | CC1(C)[C@H](NC(=O)c2ccc(N3CCN(CC4CCN(c5ccc6c(c5)C(=O)N(C5CCC(=O)NC5=O)C6=O)CC4)CC3)cc2)C(C)(C)[C@H]1Oc1ccc(C#N)c(Cl)c1 (stereo not given in full)
5 | – | – | – | – | COC(=O)C1=C(C)NC(C)=C(C(=O)OCCN(C)Cc2ccccc2)C1c1cccc([N+](=O)[O-])c1 (stereo not given) [NICARDIPINE]
4.5 | – | – | – | – | CC(C)(C)NC(=O)[C@@H]1C[C@@H]2CCCC[C@@H]2CN1C[C@@H](O)[C@H](Cc1ccccc1)NC(=O)[C@H](CC(N)=O)NC(=O)c1ccc2ccccc2n1
– | 4.2 | – | – | – | COC(=O)N[C@H](C(=O)N[C@@H](Cc1ccccc1)[C@@H](O)CN(Cc1ccc(-c2ccccn2)cc1)NC(=O)[C@@H](NC(=O)OC)C(C)(C)C)C(C)(C)C [ATAZANAVIR]
1.5 | – | – | – | – | C=CCc1ccccc1OCC(O)CNC(C)C (stereo not given) [ALPRENOLOL]
5 | – | 4.8 | 64.6% | – | N#Cc1ccc(O[C@H]2CC[C@H](NC(=O)c3ccc(N4CCC(CN5CCN(c6cc7c(cc6F)C(=O)N(C6CCC(=O)NC6=O)C7=O)CC5)CC4)nn3)CC2)cc1Cl (stereo not given in full) [BAVDEGALUTAMIDE]
3.4 | – | – | 0.16% | 3.8 | Cc1ncsc1-c1ccc(CNC(=O)[C@@H]2C[C@@H](O)CN2C(=O)[C@@H](NC(=O)COCCOCCOCCNC(=O)C[C@@H]2N=C(c3ccc(Cl)cc3)c3c(sc(C)c3C)-n3c(C)nnc32)C(C)(C)C)cc1

Structure (SMILES) | logD ([1]; read-out: logD) | logD [1] | logD ([2]; read-out: logD) | bioavailability [3] | logD [2]
CC(=O)CC(c1ccccc1)c1c(O)c2ccccc2oc1=O (stereo not given) [WARFARIN] | 0.78 | – | – | – | –
